Source: patent US8017589B2, “Avermectin B1 and avermectin B1 monosaccharide derivatives having an alkoxymethyl substituent in the 4″-or 4′-position” (Syngenta Crop Protection LLC, priority 2002, dated 2011)

Experiments:
Type in all cases: in vivo
Plutella xylostella = test: Action against Plutella xylostella caterpillars (spray on young cabbage plants); details: 72 h, 12.5 ppm spray mixture, 10 caterpillars in the first stage, 3 days later, read-out: percentage reduction in population and percentage reduction in feeding damage (% activity)
Procedure: After the spray-coating has dried, the cabbage plants are populated with 10 caterpillars of Plutella xylostella in the first stage and placed in a plastics container. Evaluation is made 3 days later. The percentage reduction in population and the percentage reduction in feeding damage (% activity) are determined by comparing the number of dead caterpillars and the feeding damage on the treated plants with that on the untreated plants.

Spodoptera littoralis = test: Action against Spodoptera littoralis (foliar spray on young soybean plants); details: 72 h, 12.5 ppm spray mixture, 10 caterpillars in the first stage, 3 days later, read-out: percentage reduction in population and percentage reduction in feeding damage (% activity)
Procedure: 3 days later, the percentage reduction in population and the percentage reduction in feeding damage (% activity) are determined by comparing the number of dead caterpillars and the feeding damage on the treated plants with that on untreated plants.

Tetranychus urticae = test: Action against Tetranychus urticae (spray on young bean plants); details: 144 h, 12.5 ppm spray mixture, mixed population, 6 days at 25° C., read-out: percentage reduction in population (% activity)
Procedure: The plants are incubated for 6 days at 25° C. and subsequently evaluated. The percentage reduction in population (% activity) is determined by comparing the number of dead eggs, larvae and adults on the treated plants with that on untreated plants.

For CCC(C)[C@H]1O[C@]2(C=C[C@@H]1C)C[C@@H]1C[C@@H](C/C=C(\C)[C@@H](OC3C[C@H](OC)[C@@H](OC4C[C@H](OC)[C@H](OCOCCOC)[C@H](C)O4)[C@H](C)O3)C(C)/C=C/C=C3\CO[C@@H]4[C@H](O)C(C)=C[C@@H](C(=O)O1)[C@]34O)O2 (stereo partly drawn) [Compound 2.8, 4″-epi-O-(2-methoxyethoxymethyl)-Avermectin B1], which inhibition at 12.5 ppm (Plutella xylostella) is on record?
Its inhibition at 12.5 ppm is greater than 80%.

CCC(C)[C@H]1O[C@]2(C=C[C@@H]1C)C[C@@H]1C[C@@H](C/C=C(\C)[C@@H](OC3C[C@H](OC)[C@@H](OCOCCN)[C@H](C)O3)C(C)/C=C/C=C3\CO[C@@H]4[C@H](O)C(C)=C[C@@H](C(=O)O1)[C@]34O)O2 (stereo partly drawn) [Compound 3.19] was tested. Which inhibition at 12.5 ppm (Spodoptera littoralis) did it give?
The inhibition at 12.5 ppm was greater than 80%.

What about the inhibition at 12.5 ppm (Tetranychus urticae) of the same compound?
Its inhibition at 12.5 ppm is greater than 80%.
